In patent US9072901B2, “Cardiac neuromodulation and methods of using same” (The Board of Regents of the University of Oklahoma, priority 2001, dated 2015):

What was measured:
[1] = test system: C1 dorsal horn cells; assay: Annexin fluorescence histochemistry after ibotenic acid pledget on C1-C2 spinal segments; format: in vivo, rats; details: pledget on C1-C2 for 2 hrs, after 14-16 hrs
Excerpt: After 14-16 hrs, rats were perfused with fixative and the medulla, C1-2, C3-5 segments were processed for annexin fluorescence histochemistry. Photomicrographs are from the C1 dorsal horn and the gray matter is outlined. […] White arrows point to unlabeled (black) cells in the dorsal horn. […] Annexin binding indicates cells with energy impairment and/or undergoing apotosis. Annexin belongs to a family of proteins that bind acidic phospholipids, particularly phosphotidylserine (PS). PS is assymetically distributed in the cell membrane by the enzyme, aminophospholipid translocase. Following energy impairment, PS distributes to the outer cell leaflet and annexin binding illustrates cells with PS on the outside of the cell.
Chemical disruption of the C1-C2 spinal neurons alters the effects of stimulation of the cardiac afferent input on the regulation of information processing in the cervical and thoracic spinal cord. In order to produce chemical disruption of cells, ibotenic acid was chosen because it is an excitotoxin that has been used effectively in previous studies. Ibotenic acid is a structurally rigid glutamate analog that destroys neuronal perikarya, but spares axons and non-neuronal cells. After ibotenic acid is injected into a nucleus or applied to the surface of the spinal cord, the cells in the region are initially excited and then enter a phase of depolarization block. […]

[2] = test system: C1-C2 spinal neurons; assay: Vagal inhibition of T3 neuron after ibotenic acid on dorsal C1-C2 spinal cord; format: in vivo; details: approximately 20 min after ibotenic acid was placed on the spinal cord
Excerpt: FIGS. […] Electrical stimulation of the left cervical vagus (A: LCVS; {30 V, 0.1 ms} ipsilateral to the cell) right cervical vagus (B; RCVS; contralateral) at different frequencies. Vagal stimulation reduced the discharge rate of the evoked response to noxious stimulation of the cardiac afferents intrapericardial injections of bradykinin (C). IA; ibotenic acid. The short horizontal bars represent the period of vagal stimulation, the long horizontal bar represents the bradykinin injection and the numbers indicate the frequencies tested.
Chemical disruption of the C1-C2 spinal neurons alters the effects of stimulation of the cardiac afferent input on the regulation of information processing in the cervical and thoracic spinal cord. In order to produce chemical disruption of cells, ibotenic acid was chosen because it is an excitotoxin that has been used effectively in previous studies. Ibotenic acid is a structurally rigid glutamate analog that destroys neuronal perikarya, but spares axons and non-neuronal cells. After ibotenic acid is injected into a nucleus or applied to the surface of the spinal cord, the cells in the region are initially excited and then enter a phase of depolarization block. […] The advantage of this methodology is that the neuronal relays in the C1-C2 segments can be disrupted without interrupting the axons that pass through this region. […]

Q: How did the “annexin staining of cells” value [1] turn out when `N[C@H](C(=O)O)c1cc(=O)[nH]o1` [ibotenic acid] was run?
A: The value was “many annexin positive”.

Q: And the “inhibitory effects to vagal stimulation” value [2]?
A: Its value is “eliminated”.
